Patent publication US20230357310A1, “Saponin derivatives with improved therapeutic window” (priority 2019, published 2023)
pIC50: −log10 of the molar value. Where two headings read alike, the source gives them in different places.

What was measured:
[1] = system: EGFR expressing cells (HeLa); assay: cells; conditions: for pIC50: Homo sapiens, HeLa, read-out: IC50 endosomal escape enhancing activity, in HeLa or A431, + 5 pM EGF-dianthin, summary range; for endosomal escape enhancing activity (enhancement of cytotoxicity of ADC / effector molecules): summary statement in the description
HeLa cells [2] = assay: cells; conditions: for cytotoxicity compared with unmodified saponin: comparison in words
human red blood cells = assay: cells; conditions: for IC50: read-out: IC50 nM (hemolysis); for hemolytic activity compared with unmodified saponin: comparison in words
Protocol: Red blood cells (RBCs) were isolated from a buffy coat using a Ficoll gradient. The obtained RBC pellet (˜4-5 ml) was washed 2× with 50 ml DPBS (without Ca^2+/Mg^2+, PAN-Biotech GmbH). Cells were pelleted by centrifugation for 10 min, 800×g at RT. RBC were counted and resuspended at 500.000.000 c/ml in DPBS (without Ca^2+/Mg^2+), based on total cell count.
Saponin dilutions were prepared in DPBS (with Ca^2+/Mg^2+, PAN-Biotech GmbH), at 1.11×final strength. For positive lysis control a 0.02% Triton-X100 solution was prepared in DPBS^+/+. Of all compound solutions 135 μl was dispensed/well in a 96 well V-bottom plate. To this 15 μl RBC suspension was added and mixed shortly (10 sec-600 rpm). The plate was incubated 30 min at RT, with gentle agitation. Afterwards the plate was spun for 10 min at 800×g to pellet the RBC and 100-120 μl supernatant was transferred to a standard 96 wp (96 well-plate).

[3] = Critical micellar concentration (ANS fluorescence); format: physicochemical; conditions: for CMC compared with native (underivatised) saponin: comparison in words
Protocol: The critical micellar concentration (CMC) of saponins derived from Saponaria officinalis (SO) (Table A7) and derived from Quillaja saponaria (QS) (Table A8, and Table A9) was determined by the method of DeVendittis et al. (A fluorimetric method for the estimation of the critical micelle concentration of surfactants, Analytical Biochemistry, Volume 115, Issue 2, August 1981, Pages 278-286) as follows:
The emission spectrum of 8-Anilinonaphthalene-1-sulfonic acid (ANS) in either purified water (MQ) or PBS (Dulbecco's PBS+/+) was determined at dry weight concentrations of saponins ranging from 1 to 1400 μM to cover the range below and above the CMC. Above the CMC, the fluorescence yield of ANS increases and the wavelength of maximum emission decreases due to portioning of the fluorescent dye into micelles. Fluorescence yields were recorded on a Fluoroskan Ascent FL (Thermo Scientific) at an excitation wavelength of 355 nm, and an emission wavelength of 460 nm. 6 μg at a concentration of 75.86 μM of ANS were used per sample and measurement.

HeLa (EGFR+) cells = conditions: saponin as single compound
Protocol: To extend this test, saponins from other sources were analyzed. A saponin purified from a root extract of Gypsophila elegans M. Bieb. […] FIG. 63C).

A431 (EGFR++) cells = assay: Cell viability, saponin derivative with or without […] EGFdianthin; conditions: A431, saponin as single compound
HeLa cells [4] = assay: Pilot cell viability bioassay, saponin + 1.5 pM dianthin-EGF, 72 h; format: cell-based; conditions: 10 microgram/ml saponin + […] dianthin-EGF
Protocol: HeLa cells were incubated for 72 h with the following constructs and cell viability before and after the 72 h-incubation was assessed. In the experiments, cells were exposed to 1.5 pM dianthin-EGF conjugate. A negative control were cells incubated with buffer vehicle and 10 microgram/ml saponin, without dianthin-EGF. Cell viability was set to 100% for the control in which both saponin and EGF-dianthin were omitted. […] Cell viability after 72 h was essentially 0%. For the chemically modified saponin variants, 10 microgram/ml saponin was tested in combination with 1.5 pM dianthin-EGF.

[5] = system: EGFR expressing cells (A431); assay: Cell viability assay (MTS): saponin titrated on fixed 10 pM targeted toxin; format: cell-based; conditions: without targeted toxin
HSP27 mRNA in A431 cells = assay: HSP27 mRNA gene silencing analysis; format: cell-based; conditions: A431, without oligonucleotide
Source text: (§1) RNA from cells was isolated and analysed according to standard protocols (Biorad). qPCR primers that were used are indicated in Table A10.

A2058 (EGFR−) cells = assay: Cell viability, saponin derivative with or without […] EGFdianthin; conditions: A2058, saponin as single compound
[6] = system: HSP27 mRNA in SK-BR-3 cells; assay: HSP27 mRNA gene silencing analysis; format: cell-based; conditions: with and without SO1861-Ald-EMCH, SK-BR-3 (FIG. 58)
Source text: as §1

Question: With CC(=O)OC1C(C)OC(OC2C(C)OC(OC(=O)[C@]34CCC(C)(C)CC3C3=CCC5[C@@]6(C)CC[C@H](OC7OC(C(=O)O)C(O)C(OC8OCC(O)C(O)C8O)C7OC7OC(CO)C(O)C(O)C7O)[C@@](C)(/C=N/NC(=O)CCCCCN7C(=O)C[C@H](SCCO)C7=O)C6CC[C@@]5(C)[C@]3(C)C[C@H]4O)C(OC3OC(C)C(OC4OCC(O)C(OC5OC(CO)C(O)C(O)C5O)C4O)C(O)C3O)C2O)C(O)C1OC1OCC(O)C(O)C1O (stereo partly shown) [SO1861-Ald-EMCH-blocked] as the compound, how does the pIC50 [1] read?
Answer: 5.70 to 6.22

Question: And the IC50 (HeLa cells [2]; Homo sapiens, HeLa, read-out: IC50 nM (Toxicity))?
Answer: > 100000 nM

Question: What about the pIC50 (HeLa cells [2]; Homo sapiens, HeLa, read-out: IC50 toxicity) of the same compound?
Answer: < 4.00

Question: What about the “cytotoxicity compared with unmodified saponin” value (HeLa cells [2]) of the same compound?
Answer: less cytotoxic

Question: What about the IC50 (human red blood cells; Homo sapiens, Erythrocyte) of the same compound?
Answer: 300000 nM

Question: And the pIC50 (human red blood cells; Homo sapiens, Erythrocyte, read-out: IC50 hemolytic activity)?
Answer: 3.52

Question: What about the “hemolytic activity compared with unmodified saponin” value (human red blood cells) of the same compound?
Answer: less hemolytically active

Question: What about the IC50 (human red blood cells; red blood cells, Table A6) of the same compound?
Answer: 300000 nM

Question: And the “CMC” value ([3]; SO saponins, determined in PBS, Table A7)?
Answer: 50 ± 5 µM

Question: What about the “CMC compared with native (underivatised) saponin” value (shortened to “CMC compared with native”) [3] of the same compound?
Answer: lower CMC values

Question: What does the source list for CC(=O)OC1C(C)OC(OC2C(C)OC(OC(=O)C34CCC(C)(C)CC3C3=CCC5C6(C)CCC(OC7OC(C(=O)O)C(O)C(OC8OCC(O)C(O)C8O)C7OC7OC(CO)C(O)C(O)C7O)C(C)(C=NNC(=O)CCOCCOCCOCCOCCN=[N+]=[N-])C6CCC5(C)C3(C)CC4O)C(OC3OC(C)C(OC4OCC(O)C(OC5OC(CO)C(O)C(O)C5O)C4O)C(O)C3O)C2O)C(O)C1OC1OCC(O)C(O)C1O (stereo not shown)?
Answer: general toxicity in absence of EGFdianthin (HeLa (EGFR+) cells): above 10.000 nM; general toxicity in absence of EGFdianthin (A431 (EGFR++) cells): above 10.000 nM

Question: What does the source list for CC(=O)OC1C(C)OC(OC2C(C)OC(OC(=O)[C@]34CCC(C)(C)CC3C3=CCC5[C@@]6(C)CC[C@H](OC7OC(C(=O)O)C(O)C(OC8OCC(O)C(O)C8O)C7OC7OC(CO)C(O)C(O)C7O)[C@@](C)(/C=N/NC(=O)CCCCCN7C(=O)C=CC7=O)C6CC[C@@]5(C)[C@]3(C)C[C@H]4O)C(OC3OC(C)C(OC4OCC(O)C(OC5OC(CO)C(O)C(O)C5O)C4O)C(O)C3O)C2O)C(O)C1OC1OCC(O)C(O)C1O (stereo partly shown) [SO1861-Ald-EMCH]?
Answer: Cell viability after 72 h (HeLa cells [4]): reduced cell viability; pIC50 [1]: 5.70 to 6.22; cytotoxicity compared with unmodified saponin (HeLa cells [2]): less cytotoxic; hemolytic activity compared with unmodified saponin (human red blood cells): less hemolytically active; CMC ([3]; PBS (Tables A7, A9)): > 800 µM; CMC compared with native (underivatised) saponin [3]: higher CMC values; cell killing activity of saponin alone [5]: no cell killing activity; HSP27 gene silencing activity of saponin derivative alone (HSP27 mRNA in A431 cells): no HSP27 gene silencing activity; general toxicity in absence of EGFdianthin (HeLa (EGFR+) cells): > 25.000 nM; general toxicity in absence of EGFdianthin (A431 (EGFR++) cells): > 25.000 nM; general toxicity in absence of EGFdianthin (A2058 (EGFR−) cells): > 25.000 nM

Question: Which “general toxicity in absence of EGFdianthin” value (“general toxicity in absence” below) (HeLa (EGFR+) cells) does the source give for CC(=O)OC1C(C)OC(OC2C(C)OC(OC(=O)[C@]34CCC(C)(C)CC3C3=CCC5[C@@]6(C)CC[C@H](OC7OC(C(=O)O)C(O)C(OC8OCC(O)C(O)C8O)C7OC7OC(CO)C(O)C(O)C7O)[C@@](C)(C=O)C6CC[C@@]5(C)[C@]3(C)C[C@H]4O)C(OC3OC(C)C(OC4OCC(O)C(OC5OCC(O)C(O)C5O)C4O)C(O)C3O)C2O)C(O)C1OC(C)=O (stereo partly shown) [GE1741, reference compound] here?
Answer: 5.000 nM

Question: Which “Cell viability after 72 h” value (HeLa cells [4]) does the source give for CC(=O)OC1C(C)OC(OC2C(C)OC(OC(=O)[C@]34CCC(C)(C)CC3C3=CCC5[C@@]6(C)CC[C@H](OC7OC(C(=O)O)C(O)C(OC8OCC(O)C(O)C8O)C7OC7OC(CO)C(O)C(O)C7O)[C@@](C)(C=O)C6CC[C@@]5(C)[C@]3(C)C[C@H]4O)C(OC3OC(C)C(OC4OCC(O)C(OC5OC(CO)C(O)C(O)C5O)C4O)C(O)C3O)C2O)C(O)C1OC1OCC(O)C(O)C1O (stereo partly shown) [SO1861, reference compound] here?
Answer: ~0%

Question: And the CMC ([3]; PBS (Tables A7, A9))?
Answer: 185 µM

Question: And the “cell killing activity of saponin alone” value [5]?
Answer: no cell killing activity

Question: And the “general toxicity in absence” value (HeLa (EGFR+) cells)?
Answer: strong cell viability reduction

Question: What about the “general toxicity in absence” value (A431 (EGFR++) cells) of the same compound?
Answer: strong cell viability reduction

Question: And the “general toxicity in absence” value (A2058 (EGFR−) cells)?
Answer: strong cell viability reduction

Question: For CC1OC(OC2C(C)OC(OC(=O)[C@]34CCC(C)(C)CC3C3=CCC5[C@@]6(C)CC[C@H](OC7OC(C(=O)O)C(O)C(OC8OCC(O)C(O)C8O)C7OC7OC(CO)C(O)C(O)C7O)[C@@](C)(CO)C6CC[C@@]5(C)[C@]3(C)C[C@H]4O)C(OC3OC(C)C(OC4OCC(O)C(OC5OC(CO)C(O)C(O)C5O)C4O)C(O)C3O)C2O)C(O)C(OC2OCC(O)C(O)C2O)C1O (stereo partly shown) [Molecule 10], which “endosomal escape enhancing activity (enhancement of cytotoxicity of ADC / effector molecules)” value [1] is on record?
Answer: have the capacity to enhance the cytotoxic effect

Question: And the “CMC compared with native” value [3]?
Answer: increased CMC

Question: For CC(=O)OC1C(C)OC(OC2C(C)OC(OC(=O)[C@]34CCC(C)(C)CC3C3=CCC5[C@@]6(C)CC[C@H](OC7OC(C(=O)O)C(O)C(OC8OCC(O)C(O)C8O)C7OC7OC(CO)C(O)C(O)C7O)[C@@](C)(CO)C6CC[C@@]5(C)[C@]3(C)C[C@H]4O)C(OC3OC(C)C(OC4OCC(O)C(OC5OC(CO)C(O)C(O)C5O)C4O)C(O)C3O)C2O)C(O)C1OC1OCC(O)C(O)C1O (stereo partly shown) [Molecule 6], which “endosomal escape enhancing activity (enhancement of cytotoxicity of ADC / effector molecules)” value [1] is on record?
Answer: have the capacity to enhance the cytotoxic effect

Question: What about the “CMC compared with native” value [3] of the same compound?
Answer: increased CMC

Question: With CC1OC(OC2C(C)OC(OC(=O)[C@]34CCC(C)(C)CC3C3=CCC5[C@@]6(C)CC[C@H](OC7OC(C(=O)O)C(O)C(OC8OCC(O)C(O)C8O)C7OC7OC(CO)C(O)C(O)C7O)[C@@](C)(C=O)C6CC[C@@]5(C)[C@]3(C)C[C@H]4O)C(OC3OC(C)C(OC4OCC(O)C(OC5OC(CO)C(O)C(O)C5O)C4O)C(O)C3O)C2O)C(O)C(OC2OCC(O)C(O)C2O)C1O (stereo partly shown) [Molecule 8] as the compound, how does the “endosomal escape enhancing activity (enhancement of cytotoxicity of ADC / effector molecules)” value [1] read?
Answer: display activity

Question: And the “CMC compared with native” value [3]?
Answer: increased CMC

Question: Which “endosomal escape enhancing activity (enhancement of cytotoxicity of ADC / effector molecules)” value [1] does the source give for CC1OC(OC2C(C)OC(OC(=O)C34CCC(C)(C)CC3C3=CCC5C6(C)CCC(OC7OC(C(=O)O)C(O)C(OC8OCC(O)C(O)C8O)C7OC7OC(CO)C(O)C(O)C7O)C(C)(C=NNC(=O)CCCCCN7C(=O)C=CC7=O)C6CCC5(C)C3(C)CC4O)C(OC3OC(C)C(OC4OCC(O)C(OC5OC(CO)C(O)C(O)C5O)C4O)C(O)C3O)C2O)C(O)C(OC2OCC(O)C(O)C2O)C1O (stereo not shown) [Molecule 15] here?
Answer: have the capacity to enhance the cytotoxic effect

Question: And the “CMC compared with native” value [3]?
Answer: increased CMC

Question: Which “endosomal escape enhancing activity (enhancement of cytotoxicity of ADC / effector molecules)” value [1] does the source give for CC(=O)OC1C(C)OC(OC2C(C)OC(OC(=O)[C@]34CCC(C)(C)CC3C3=CCC5[C@@]6(C)CC[C@H](OC7OC(C(=O)NC(C)(CO)CO)C(O)C(OC8OCC(O)C(O)C8O)C7OC7OC(CO)C(O)C(O)C7O)[C@@](C)(C=O)C6CC[C@@]5(C)[C@]3(C)C[C@H]4O)C(OC3OC(C)C(OC4OCC(O)C(OC5OC(CO)C(O)C(O)C5O)C4O)C(O)C3O)C2O)C(O)C1OC1OCC(O)C(O)C1O (stereo partly shown) [Molecule 3A] here?
Answer: display activity

Question: For “HSP27LNA: HSP27 LNA oligo 5′-ggcacagccagtggcg-3′ (GGCACAGCCAGTGGCG; LNA-modified, pattern not given here)”, which “endosomal escape/gene silencing enhancement factor compared with HSP27BNA” value [6] is on record?
Answer: comparable
